Test results: patent US10246439B2, “Apoptosis signal-regulating kinase 1 inhibitors and methods of use thereof” (ENANTA PHARMACEUTICALS, INC., priority 2017, dated 2019)

Biological target: T1, ASK1 (Homo sapiens, UniProt Q99683)
T1 construct: purchased Thermofisher PV4011
T1 sequence (Q99683 1-1374): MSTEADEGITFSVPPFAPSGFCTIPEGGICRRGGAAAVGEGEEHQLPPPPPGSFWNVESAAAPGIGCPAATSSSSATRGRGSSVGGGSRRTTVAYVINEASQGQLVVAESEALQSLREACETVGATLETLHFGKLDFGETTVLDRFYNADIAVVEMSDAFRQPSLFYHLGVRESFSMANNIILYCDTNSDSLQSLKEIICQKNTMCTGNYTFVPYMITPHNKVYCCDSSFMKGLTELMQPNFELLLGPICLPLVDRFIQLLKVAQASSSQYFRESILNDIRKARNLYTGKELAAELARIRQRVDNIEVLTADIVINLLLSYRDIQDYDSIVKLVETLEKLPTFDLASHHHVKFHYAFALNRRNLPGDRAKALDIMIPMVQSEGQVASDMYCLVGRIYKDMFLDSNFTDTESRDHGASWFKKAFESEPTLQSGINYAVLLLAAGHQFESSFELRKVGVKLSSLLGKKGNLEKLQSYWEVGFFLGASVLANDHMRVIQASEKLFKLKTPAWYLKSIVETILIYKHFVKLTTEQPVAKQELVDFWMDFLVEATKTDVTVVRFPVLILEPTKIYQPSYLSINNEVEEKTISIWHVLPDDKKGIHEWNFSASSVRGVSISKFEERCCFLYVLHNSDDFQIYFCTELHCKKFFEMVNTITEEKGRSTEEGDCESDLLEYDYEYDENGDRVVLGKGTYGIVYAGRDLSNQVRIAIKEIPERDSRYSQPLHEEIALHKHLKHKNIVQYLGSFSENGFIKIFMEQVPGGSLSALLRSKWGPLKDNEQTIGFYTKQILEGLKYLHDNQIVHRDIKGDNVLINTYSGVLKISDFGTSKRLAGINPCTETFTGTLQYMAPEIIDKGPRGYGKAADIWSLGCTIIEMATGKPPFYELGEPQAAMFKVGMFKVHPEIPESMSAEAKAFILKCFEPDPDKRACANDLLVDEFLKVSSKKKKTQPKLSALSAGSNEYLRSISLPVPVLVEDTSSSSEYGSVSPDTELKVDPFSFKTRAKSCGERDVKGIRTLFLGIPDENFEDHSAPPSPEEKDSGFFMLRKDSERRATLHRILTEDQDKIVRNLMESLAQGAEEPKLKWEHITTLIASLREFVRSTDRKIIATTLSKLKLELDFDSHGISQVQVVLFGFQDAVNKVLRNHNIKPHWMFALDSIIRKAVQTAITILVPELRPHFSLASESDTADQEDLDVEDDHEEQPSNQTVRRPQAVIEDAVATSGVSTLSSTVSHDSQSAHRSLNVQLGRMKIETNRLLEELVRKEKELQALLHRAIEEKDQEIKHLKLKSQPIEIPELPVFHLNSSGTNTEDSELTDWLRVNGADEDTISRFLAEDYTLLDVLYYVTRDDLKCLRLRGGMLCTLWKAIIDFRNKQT
Assay: HTRF KinEASE-STK TR-FRET kinase assay, inhibition of ASK1
Format: biochemical
Conditions: 5 nM ASK1, 1 uM STK3 peptide substrate, 100 uM ATP
Method: ASK1 was purchased from Thermofisher (Catalogue # PV4011), ATP was purchased from Sigma (Catalogue # A7699), HTRF® KinEASE™ Assay System was obtained from Cisbio (Bedford, Mass.). ½ Area plate was purchased from Perkin Elmer (Catalogue # #6005560). HTRF® KinEASE™-STK is a generic method for measuring serine/threonine kinase activities using a time-resolved fluorescence resonance energy transfer (TR-FRET) immunoassay. The IC50 value for each compound was determined in the presence of compound (various concentration from 0 to 10 μM) and a fixed amount of ATP and peptide substrates. The test compound, 1 uM STK3 peptide substrate, and 5 nM of ASK1 kinase are incubated with kinase reaction buffer containing 50 mM HEPES pH 7.5, 0.01% BRIJ-35, 10 mM MgCl2, and 1 mM EGTA for 30 minutes. 100 uM ATP is added to start kinase reaction and incubated for 3 hours. The STK3-antibody labeled with Eu^3+-Cryptate and 125 nM streptavidin-XL665 are mixed in a single addition with stop reagents provided by the Cisbio kit used to stop the kinase reaction. Fluorescence is detected using an Envision Multilabeled 2014 reader from PerkinElmer. The Fluorescence is measured at 615 nm (Cryptate) and 665 nm (XL665) and a ratio of 665 nm/615 nm is calculated for each well. The resulting TR-FRET is proportional to the phosphorylation level. Staurosporine was used as the positive control. IC50 was determined by XLfit 5.3.

Row | SMILES | IC50 [µM]
1 | CC(C)n1cnnc1-c1cccc(NC(=O)c2ccc3ncn(C)c3c2)n1 [Example 1, N-(6-(4-isopropyl-4H-1,2,4-triazol-3-yl)pyridin-2-yl)-1-methyl-1H-benzo[d]imidazole-6-carboxamide] | 0.1 to 1
2 | CC(C)N(c1nc2ccc(C(=O)Nc3cccc(-c4nncn4C(C)C)n3)cc2s1)C(C)C [Example 53, 2-(diisopropylamino)-N-(6-(4-isopropyl-4H-1,2,4-triazol-3-yl)pyridin-2-yl)benzo[d]thiazole-6-carboxamide] | 0.01 to 0.1
3 | CNc1nc2cc(F)c(C(=O)Nc3cccc(-c4nnnn4C(C)C)n3)cc2s1 [Example 33] | > 1
4 | CC(C)n1cnnc1-c1cccc(NC(=O)c2cc3sc(C4CC4)nc3cn2)n1 [Example 63, 2-cyclopropyl-N-(6-(4-isopropyl-4H-1,2,4-triazol-3-yl)pyridin-2-yl)thiazolo[4,5-c]pyridine-6-carboxamide] | 0.01 to 0.1
5 | CC(C)n1cnnc1-c1cccc(NC(=O)c2ccc3nc(-c4ccc(C(C)(C)C)cc4)sc3c2)n1 [Example 58, 2-(4-(tert-butyl)phenyl)-N-(6-(4-isopropyl-4H-1,2,4-triazol-3-yl)pyridin-2-yl)benzo[d]thiazole-6-carboxamide] | > 1
6 | CCCCN(C)c1nc2cc(F)c(C(=O)Nc3cccc(-c4nnnn4C(C)C)n3)cc2s1 [Example 43] | > 1
7 | CCN(CC)c1nc2ccc(C(=O)Nc3cccc(-c4nncn4C(C)C)n3)cc2s1 [Example 57] | 0.01 to 0.1
8 | CC(C)n1cnnc1-c1cccc(NC(=O)c2ccc3nc(N4CC5(COC5)C4)sc3c2)n1 [Example 18] | 0.01 to 0.1
9 | CC(C)n1nnnc1-c1cccc(NC(=O)c2cc3sc(N(C)C)nc3cn2)n1 [Example 75] | 0.01 to 0.1
10 | CC(C)n1nnnc1-c1cccc(NC(=O)c2cc3sc(NC4CC4)nc3cc2F)n1 [Example 38] | > 1
11 | CC(C)n1cnnc1-c1cccc(NC(=O)c2ccc3ncsc3c2)n1 [Example 2, N-(6-(4-isopropyl-4H-1,2,4-triazol-3-yl)pyridin-2-yl)benzo[d]thiazole-6-carboxamide] | 0.1 to 1
12 | CC(C)n1nnnc1-c1cccc(NC(=O)c2cc3sc(N(C)C)nc3cc2F)n1 [Example 5] | 0.01 to 0.1
13 | CC(C)n1cnnc1-c1cccc(NC(=O)c2cc3sc(N(C)C)nc3cn2)n1 [Example 64] | 0.01 to 0.1
14 | CC(C)n1nnnc1-c1cccc(NC(=O)c2cc3sc(N(C)C4CC4)nc3cc2F)n1 [Example 32] | > 1
15 | CC(C)n1nnnc1-c1cccc(NC(=O)c2cc3sc(N4CCN(C(C)(C)C)CC4)nc3cn2)n1 [Example 71] | 0.1 to 1
16 | CCN(CC)c1nc2cc(F)c(C(=O)Nc3cccc(-c4nnnn4C(C)C)n3)cc2s1 [Example 35] | > 1
17 | CC(C)n1cnnc1-c1cccc(NC(=O)c2ccc3nc(-c4ccccc4)sc3c2)n1 [Example 22] | 0.1 to 1
18 | CC(C)n1cnnc1-c1cccc(NC(=O)c2ccc3nc(N(C)C)sc3c2)n1 [Example 23] | 0.01 to 0.1
19 | CC(C)n1nnnc1-c1cccc(NC(=O)c2cc3sc(N(C)C4CCCCC4)nc3cc2F)n1 [Example 44] | > 1
20 | CC(C)n1nnnc1-c1cccc(NC(=O)c2cc3sc(NC4CCCCC4)nc3cc2F)n1 [Example 34] | > 1

The next lines start with the values.

Row | IC50 [µM] | SMILES
21 | 0.001 to 0.01 | CC(C)n1cnnc1-c1cccc(NC(=O)c2cc3sc(N4CCN(C5CC5)CC4)nc3cc2F)n1 [Example 12]
22 | 0.01 to 0.1 | CC(C)n1cnnc1-c1cccc(NC(=O)c2ccc3nc(N4CCC(F)(F)CC4)sc3c2)n1 [Example 19]
23 | 0.001 to 0.01 | CC(C)n1cnnc1-c1cccc(NC(=O)c2cc3sc(N4CCCC4)nc3cc2F)n1 [Example 50]
24 | > 1 | CC(C)n1nnnc1-c1cccc(NC(=O)c2cc3sc(N4CCC4)nc3cc2F)n1 [Example 45]
25 | 0.001 to 0.01 | CC(C)n1cnnc1-c1cccc(NC(=O)c2cc3sc(NC4CCCCC4)nc3cc2F)n1 [Example 26]
26 | > 1 | CC(C)n1nnnc1-c1cccc(NC(=O)c2cc3sc(N4CCCC4)nc3cc2F)n1 [Example 47]
27 | 0.01 to 0.1 | CC(C)n1cnnc1-c1cccc(NC(=O)c2cc3sc(NCC4CC4)nc3cc2F)n1 [Example 48]
28 | > 1 | CC(C)n1cnnc1-c1cccc(NC(=O)c2cc3sc(N4CCC(C(C)(C)C)CC4)nc3cn2)n1 [Example 73]
29 | 0.1 to 1 | CC(C)n1cnnc1-c1cccc(NC(=O)c2ccc3nc(N4CCCC4)sc3c2)n1 [Example 20]
30 | 0.01 to 0.1 | CC(C)n1cnnc1-c1cccc(NC(=O)c2cc3sc(C4CC4)nc3cc2F)n1 [Example 7, 2-cyclopropyl-5-fluoro-N-(6-(4-isopropyl-4H-1,2,4-triazol-3-yl)pyridin-2-yl)benzo[d]thiazole-6-carboxamide]
31 | 0.001 to 0.01 | CC(C)n1cnnc1-c1cccc(NC(=O)c2cc3sc(N(C)C4CCCCC4)nc3cc2F)n1 [Example 8]
32 | 0.001 to 0.01 | CC(C)n1cnnc1-c1cccc(NC(=O)c2cc3sc(N4CCOCC4)nc3cc2F)n1 [Example 16]
33 | 0.01 to 0.1 | CC(C)n1cnnc1-c1cccc(NC(=O)c2ccc3nc(N4CCN(C(C)(C)C)CC4)sc3c2)n1 [Example 59]
34 | 0.001 to 0.01 | CC(C)n1cnnc1-c1cccc(NC(=O)c2cc3sc(N4CCCCC4)nc3cn2)n1 [Example 66, N-(6-(4-isopropyl-4H-1,2,4-triazol-3-yl)pyridin-2-yl)-2-(piperidin-1-yl)thiazolo[4,5-c]pyridine-6-carboxamide]
35 | 0.001 to 0.01 | CC(C)n1cnnc1-c1cccc(NC(=O)c2cc3sc(N(C)CC4CC4)nc3cc2F)n1 [Example 11]
36 | 0.01 to 0.1 | CC(C)n1cnnc1-c1cccc(NC(=O)c2ccc3nc(N4CC5CC5C4)sc3c2)n1 (stereo not shown) [Example 52]
37 | 0.001 to 0.01 | CC(C)n1cnnc1-c1cccc(NC(=O)c2cc3sc(N4CCC4)nc3cc2F)n1 [Example 28]
38 | 0.001 to 0.01 | CC(C)n1cnnc1-c1cccc(NC(=O)c2cc3sc(N(C)C4CC4)nc3cc2F)n1 [Example 10]
39 | > 1 | CC(C)n1nnnc1-c1cccc(NC(=O)c2cc3sc(N4CCN(C(C)(C)C)CC4)nc3cc2F)n1 [Example 3, 2-(4-(tert-butyl)piperazin-1-yl)-5-fluoro-N-(6-(1-isopropyl-1H-tetrazol-5-yl)pyridin-2-yl)benzo[d]thiazole-6-carboxamide]
40 | 0.001 to 0.01 | CCCCN(C)c1nc2cc(F)c(C(=O)Nc3cccc(-c4nncn4C(C)C)n3)cc2s1 [Example 9]
41 | 0.001 to 0.01 | CCCCNc1nc2cc(F)c(C(=O)Nc3cccc(-c4nncn4C(C)C)n3)cc2s1 [Example 27]
42 | 0.01 to 0.1 | CC(C)n1cnnc1-c1cccc(NC(=O)c2cc3sc(N4CCN(C(C)(C)C)CC4)nc3cc2F)n1 [Example 15]
43 | 0.1 to 1 | CC(C)n1cnnc1-c1cccc(NC(=O)c2ccc3nc(N4CCN(C5CC5)CC4)sc3c2)n1 [Example 55]
44 | 0.01 to 0.1 | CC(C)n1cnnc1-c1cccc(NC(=O)c2cc3sc(N4CCC(C(C)(C)C)CC4)nc3cc2F)n1 [Example 29]
45 | 0.01 to 0.1 | CC(C)n1cnnc1-c1cccc(NC(=O)c2ccc3nc(N4CC5CCC(C4)O5)sc3c2)n1 [Example 17]
46 | > 1 | CC(C)n1nnnc1-c1cccc(NC(=O)c2cc3sc(N4CCC(C(C)(C)C)CC4)nc3cc2F)n1 [Example 41]
